{"source": "patent US20090215710A1", "about": "“CARBOHYDRATE BASED TOLL-LIKE RECEPTOR (TLR) ANTAGONISTS” (RELIANCE LIFE SCIENCES PVT. LTD., priority 2007, published 2009)", "key": {"[1]": {"tested_on": "ICAM-1, COX-2, IL-1β and IL-8 genes", "assay": "mRNA expression of pro-inflammatory genes in THP-1 cells", "format": "cell-based, human", "conditions": "THP-1, LPS 250 ng/ml", "method": "The inhibitory effect of the present invention, RSCL-0409 on mRNA was checked on pro-inflammatory genes like intercellular adhesion molecule1 (ICAM-1), cyclooxygenase 2 (COX-2), IL-1β and IL-8. THP-1 cells (3×10^6 cells) were seeded in a 6-well dish. The cells were treated with RSCL-0409 ([…]) for 1 hr followed by incubation with or without 250 ng/ml of LPS. After two washes with ice-cold PBS, the cells were harvested and total cellular RNA was isolated using TRIZOL Reagent (Invitrogen) according to the manufacturer's instructions. cDNA synthesis was done using high capacity cDNA reverse transcription kit (ABI systems). Amplification of ICAM-1, COX-2, IL-1β and IL-8 genes from the cDNA was carried out using the respective gene specific primers."}, "[2]": {"tested_on": "NF-κB", "assay": "NF-κB SEAP reporter assay in THP-1 CD14 Blue cells", "format": "cell-based, human", "conditions": "LPS 250 ng/ml, 24 hr", "method": "THP-1 CD14 Blue cells (Invivogen, San Diego, Calif., USA) transfected with a SEAP reporter construct in which the reporter expression was regulated by the NF-κB promoter were stimulated with LPS (250 ng/ml) with or without RSCL-0409 for 24 hr. […] The reporter activity was determined using Quanti Blue kit (Invivogen). The data (FIG. 8) is plotted as the relative change of reporter activity. NS; not significant, ** P value <0.01, *** P value <0.001 are statistics for Cells Vs RSCL-0409 treated and LPS treated vs. RSCL-0409 followed by LPS treatment respectively. These observations further confirm that the RSCL-0409 inhibits LPS induced TLR mediated activation of NF-κB transcription factor."}, "[3]": {"tested_on": "TNF-α", "assay": "LPS induced TNF-α secretion in THP-1 monocytes, dose dependence (ELISA)", "format": "cell-based, human", "conditions": "THP-1, LPS 250 ng/ml, 100, 50, 10 and 1 μM, 24 hr", "method": "To confirm whether the inhibitory effect of RSCL-0409 is dose-dependent, the present invention has studied the ability of RSCL-0409 to inhibit TNF-α secretion from LPS (250 ng/ml) induced THP-1 monocytes (FIG. 2a).\nTHP-1, 2×10^5 cells/well was plated in 96-well plate. The cells were pretreated with RSCL-0409 at various concentrations (100 μM, 50 μM, 10 μM and 1 μM) 1 hr prior to LPS stimulation. As a control group, cells were treated with LPS alone and cells treated with RSCL-0409 alone were used. TNF-α secretion was estimated in the culture supernatants following 24 hr LPS stimulation using Duoset ELISA detection Kit (R&D systems, MN, USA). *P<0.05, ***P<0.001 values are comparisons for LPS treated vs. RSCL-0409 treated, NS indicates not significant."}, "[4]": {"biological_target": "T1, TLR6 (Homo sapiens, UniProt Q9Y2C9)", "T1 construct": "endogenous in cells; host or cells: THP-1 monocytes and/or PBMCs", "T1 sequence (Q9Y2C9 32-796)": "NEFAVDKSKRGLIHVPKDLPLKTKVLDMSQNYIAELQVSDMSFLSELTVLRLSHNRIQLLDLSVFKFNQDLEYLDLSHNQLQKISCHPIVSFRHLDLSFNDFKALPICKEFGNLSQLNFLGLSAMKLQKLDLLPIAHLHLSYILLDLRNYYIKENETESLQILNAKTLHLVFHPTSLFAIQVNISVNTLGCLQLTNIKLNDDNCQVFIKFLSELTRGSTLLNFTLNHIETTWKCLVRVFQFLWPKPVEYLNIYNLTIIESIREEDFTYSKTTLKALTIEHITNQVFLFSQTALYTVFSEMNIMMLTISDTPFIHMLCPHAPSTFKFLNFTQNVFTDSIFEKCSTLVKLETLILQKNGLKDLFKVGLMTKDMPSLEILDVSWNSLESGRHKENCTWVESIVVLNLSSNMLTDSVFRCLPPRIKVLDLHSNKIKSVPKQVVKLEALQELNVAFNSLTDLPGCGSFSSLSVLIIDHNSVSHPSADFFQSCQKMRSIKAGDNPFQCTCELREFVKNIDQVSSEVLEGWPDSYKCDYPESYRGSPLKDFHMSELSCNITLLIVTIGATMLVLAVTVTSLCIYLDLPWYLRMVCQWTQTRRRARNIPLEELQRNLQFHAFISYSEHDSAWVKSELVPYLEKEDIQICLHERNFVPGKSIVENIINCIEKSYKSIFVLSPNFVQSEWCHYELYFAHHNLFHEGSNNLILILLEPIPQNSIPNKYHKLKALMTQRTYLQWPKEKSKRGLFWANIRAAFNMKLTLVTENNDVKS", "assay": "TLR6 ligand induced TNF-α secretion (ELISA)", "format": "cell-based", "conditions": "cells treated with TLR6 ligand 75 ng/ml", "method": "The present invention has checked the effect of various TLR ligands on THP-1 monocytes, PBMCs and their ability to activate and release TNF-α. For this purpose about 9 TLR ligands were used. These ligands were obtained from Apotech Cat; APO-54N-018-K100 and assayed for TNF-α release in culture supernatants.\nTHP-1 and PBMCs (2×10^5 cells/well) were plated in 96-well plate. The cells were pretreated with RSCL-0409 in DMSO 1 hr prior to TLR ligand treatment. Following 1 hr pre-treatment, the cells were treated with TLR ligands [TLR2, TLR5 and TLR6-75 ng/ml each, TLR3-75 μg/ml, TLR4-750 ng/ml, TLR7, TLR8 and TLR9-7.5 μg/ml) for 24 hrs. The culture supernatant were collected after the stipulated time and assayed for TNF-α release using a Duoset Enzyme-Linked ImmunoSorbent Assay (ELISA) detection Kit (R&D systems, MN 55413, USA; Cat: DY-210 E). Simultaneously supernatants were collected from cells treated with ligands without pre-treatment with RSCL-0409 and only RSCL-0409 without ligand treatment."}, "[5]": {"tested_on": "NF-κB", "assay": "NF-κB activation and nuclear translocation in LPS stimulated THP-1 cells (FACS phospho p65, immunoblot)", "format": "cell-based, human", "method": "Further, for the detection of intracellular location of phospho NF-κB p65 subunits, 1 hr LPS-stimulated cells with and without pretreatment of RSCL-0409 (50 μM—FIG. 7b) were fixed with 4% paraformaldehyde in PBS for 30 min and washed with Fluorescence-activated cell sorting (FACS) buffer [2% Fetal calm serum (FCS) in 1× Phosphate buffered saline (PBS)]. Permeabilisation is done using 90% methanol. These cells were then treated with phospho p65 monoclonal antibody tagged with Alexa Fluor 488 (Cell Signaling Technology, Inc, Ma, USA) for 1 hr at 37° C., followed by washing FACS buffer. Cells were then resuspended in PBS and acquired in BD FACS Calibur.\nThe nuclear fractions were obtained from LPS stimulated THP-1 cells at the indicated times (FIG. 7c). Nuclear proteins electrophoresed were processed for immunoblots using a NF-κB specific antibody."}}}
{"compound": "COc1ccc(OC2OC3COC(c4ccccc4)OC3C(OC3OC(COC(=O)CCC(C)=O)C(OC(=O)CCl)C(OC(C)=O)C3OC(C)=O)C2NC(=O)C(Cl)(Cl)Cl)cc1", "note": "[RSCL-0409, p-Methoxy phenyl-O-(2,3-di-O-acetyl-4-O-chloroacetyl-6-O-levulinoyl-β-D-glucopyranosyl)-(1-3)-2-deoxy-2-trichloroacetamido-4,6-O-benzylidene-α-D-glucopyranoside]", "values": [{"measurement": "mRNA expression of ICAM-1, COX-2, IL-1β and IL-8", "setting": "[1]", "value": "inhibited mRNA expression levels of the tested genes"}, {"measurement": "SEAP reporter activity (NF-κB promoter)", "setting": "[2]", "value": "blocked in a dose dependent manner"}, {"measurement": "LPS induced TNF-α secretion", "setting": "[3]", "value": "inhibited by RSCL-0409 in a concentration dependent manner"}, {"measurement": "effect on TNF-α secretion", "setting": "[4]", "value": "no effect observed"}, {"measurement": "phospho NF-κB p65 (FACS)", "setting": "[5]; THP-1, 1 hr LPS, 50 μM", "value": "inhibitory role in NF-κB signaling"}, {"measurement": "translocation of NF-κB to the nucleus", "setting": "[5]; nuclear fractions of LPS stimulated THP-1 cells", "value": "blocked translocation of NF-κB into the nucleus"}]}
